Reference: publication PMC12505902, “Inhibitors of trehalose-6-phosphate synthase activity in fungal pathogens compromise thermal tolerance pathways” (mBio, 2025)
Converted amounts (≈) assume the structure as drawn. Read-outs that look alike come from different tables or passages of the source.

Tests used:
6xHis-CaTps1 [1] = target: T1, 6xHis-CaTps1 (Candida albicans, UniProt Q92410); test: UDP Transcreener FP assay, primary screen of the 3PP library; format: biochemical; conditions: for inhibition at 500 µM: read-out: CaTps1 FP (% inhibition)
T1 construct: Briefly, the full-length; thrombin cleavage site (pET-28a linker) (N); made in house; host or cells: E. coli BL21(DE3)pLysS
T1 sequence (Q92410 1-478): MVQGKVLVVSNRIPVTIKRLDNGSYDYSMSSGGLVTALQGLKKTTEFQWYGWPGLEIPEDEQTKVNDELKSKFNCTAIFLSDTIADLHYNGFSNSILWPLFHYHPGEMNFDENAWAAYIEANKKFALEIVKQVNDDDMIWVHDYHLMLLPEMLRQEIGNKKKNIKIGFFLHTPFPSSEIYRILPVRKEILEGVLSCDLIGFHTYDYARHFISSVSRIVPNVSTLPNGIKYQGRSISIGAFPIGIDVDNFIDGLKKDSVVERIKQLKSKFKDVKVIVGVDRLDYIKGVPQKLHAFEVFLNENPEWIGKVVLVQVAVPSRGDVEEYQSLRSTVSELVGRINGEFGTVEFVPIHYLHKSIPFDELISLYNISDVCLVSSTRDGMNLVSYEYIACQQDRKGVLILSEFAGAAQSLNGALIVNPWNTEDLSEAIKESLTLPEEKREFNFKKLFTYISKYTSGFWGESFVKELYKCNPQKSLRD
Source text: As the first step of the trehalose biosynthesis pathway, Tps1 synthesizes T6P from the substrates UDP-glucose and G6P, followed by the release of UDP and T6P ([16]). To identify a small molecule inhibitor of Tps1 activity, we adapted an HTS utilizing the UDP Transcreener FP assay ([33], [34]). The FP assay detects the UDP released as a result of the Tps1-mediated enzymatic reaction (Fig. 1A). The FP assay Z’ factor, which describes the suitability of an assay for an HTS, is 0.87, indicating an ideal signal-to-noise ratio (Fig. S1A) ([35]). There was a greater than 175 millipolarization (mP) shift between the positive control novobiocin, an inhibitor with activity against a bacterial trehalose-P-synthase, and the negative control dimethyl sulfoxide (DMSO) (Fig. S1A) ([36]). Recombinant Tps1 from C. albicans, hereafter referred to as CaTps1, was expressed in E. coli and purified via an N-terminal 6xHis-tag and Ni^2-NTA affinity chromatography, followed by size exclusion chromatography (Fig. 1B). A 3-point pharmacophore (3PP) library, which consisted of a subset of 750 compounds of less than 300 Da in molecular mass from the St. Jude Children’s Research Hospital chemical library, was screened for the ability to inhibit 6xHis-CaTps1 activity ([37]). In the primary screen, 32 (4.3 %) compounds that inhibited the activity of 6xHis-CaTps1 by more than 10% at 500 µM concentration were identified (Fig. 1C and D). A 10% cutoff provided a significant number of hits to validate using a dose response assay (Fig. S1B). At the completion of the screen, seven compounds that inhibit the activity of CaTps1 in a dose-dependent manner were selected for further investigation (Fig. 1E; Table 1).
The glycosyltransferase activity of 6xHis-CaTps1, which results in the release of UDP, was measured using the UDP Transcreener FP assay (BellBrook Labs #3018, Madison, WI). The St. Jude Children’s Hospital (Memphis, TN) 3PP library was screened ([37]). Assays were performed at 37°C for 60 minutes in a 384-well plate using 5 µM 6xHis-CaTps1 in assay buffer containing 50 mM Tris-HCl pH 7.5, 300 mM NaCl, 10 mM MgCl2, and 1 mM dithiothreitol (DTT). Fluorescence polarization was detected using a BMG Labtech plate reader. Each assay plate contained the following additional control wells: (i) no antibody control, (ii) DMSO vehicle control, (iii) novobiocin positive control, and (iv) novobiocin dose-response. Screens were performed by the addition of single-point additions of test molecules to the above assay. The Z’ factor was calculated according to guidelines by Zhang et al., with a Z-factor of 0.5 and 1.0 indicating an excellent assay ([35]).

C. neoformans [2] = system: C. neoformans; parameters: method as in earlier work; conditions: Supplemental Table 5; ref (13); cited from earlier work
6xHis-CaTps1 [3] = target: T1, 6xHis-CaTps1; test: Spectrophotometric-coupled Tps1 enzyme activity assay; format: biochemical, C. albicans; conditions: compounds diluted in DMSO, normalized to the DMSO control
Method: Fig 2 4456dh binds Tps1 and inhibits Tps1 activity. (A) Structure of 4456dh. (B and C) Glo-melt thermal shift assays reveal 4456dh destabilizes 6xHis-CaTps1 (B) and 6xHis-CnTps1 (C). The first derivative of the raw data was used to determine the melting temperature of 1 µM 6xHis-CaTps1 (B) and 1 µM 6xHis-CnTps1 (C) treated without (black) or with 2 mM 4456dh (red). […] The resulting dose-response curves were fitted to a one-site binding model to extract Kd values; the SD was calculated using the Kd values from each independent experiment (n = 3). (F) Tps1 enzyme activity assay with 5 µM 6xHis-CaTps1 (F) and 6xHis-CnTps1 (G) ±1 mM 4456dh. Error bars represent SE. […]
The ability of 4456dh to inhibit the activity of CaTps1 was tested using a spectrophotometric-coupled Tps1 enzyme assay, in which recombinant 6xHis-CaTps1 was incubated with 1 mM 4456dh at 4°C for 16 hours. […] Similarly, the effect of 1 mM 4456dh on 6xHis-CnTps1 activity was determined. […]
82 determined by SDS-PAGE analysis, were pooled and concentrated to 1 mg/mL for downstream […]
93 The data were acquired with MO.Control 1.5.3 (NanoTemper Technologies GmbH). Recorded
94 data were analyzed with MO.Affinity Analysis 2.2.7 (NanoTemper Technologies GmbH). […]
100 2X Glo-melt dye. Thermal denaturation was measured using an RT-PCR thermocycler (BioRad) […]
102 determined by identifying the inflection point of the derivative data. […]

C. albicans = conditions: Supplemental Table 5, cited from earlier work
C. neoformans [4] = system: C. neoformans; parameters: method as in PMID 27248439; conditions: ref [12]; cited from earlier work
[5] = parameters: method as in PMID 27248439; conditions: ref [12]; cited from earlier work
Cryptococcus gattii = system: Cryptococcus gattii; parameters: method as in PMID 27248439; conditions: ref [12]; cited from earlier work
[6] = primary screen, 500 µM compound, 5 µM 6xHis-CaTps1, 37°C 60 minutes

Compound: N#CCC(=O)c1ccco1 [SJ000805629-1]
- inhibition at 500 µM (6xHis-CaTps1 [1]; [6]): 32.2%

Compound: Nc1[nH]c(=O)ncc1F [Flucytosine]
- MIC80 (C. neoformans [2]): 8 µg/mL (≈ 62 µM)

Compound: CN1CCc2c(sc(N)c2C#N)C1 [SJ000866390-1]
- inhibition at 500 µM (6xHis-CaTps1 [1]; [6]): 36.4%

Compound: Cn1cc(-c2csc(NC(=O)Cc3ccccn3)n2)cn1 [Compound 4456]
- effect of SJ6675 derivatives on CaTps1 activity (6xHis-CaTps1 [3]): significantly inhibited the activity of CaTps1

Compound: Nc1nc(-c2ccoc2)cs1 [SJ000866675-1, [4-furan-3-yl]thiazol-2-amine]
- inhibition at 500 µM (6xHis-CaTps1 [1]; [6]): 13.7%

Compound: CO[C@@H]1[C@@H](OC(N)=O)[C@@H](O)[C@H](Oc2ccc3c(O)c(NC(=O)c4ccc(O)c(CC=C(C)C)c4)c(=O)oc3c2C)OC1(C)C [novobiocin, reference compound]
- millipolarization (mP) shift between positive control and DMSO (6xHis-CaTps1 [1]; positive control versus negative control DMSO): greater than 175 mP

Compound: CN(C)C(C#N)c1ccccc1Cl (centres unmarked) [SJ000866063-1]
- inhibition at 500 µM (6xHis-CaTps1 [1]): 19%

Compound: C[C@@H]1[C@H](O)[C@@H](C)/C=C/C=C/C=C/C=C/C=C/C=C/C=C/[C@H](O[C@@H]2O[C@H](C)[C@@H](O)[C@H](N)[C@@H]2O)C[C@@H]2O[C@](O)(C[C@@H](O)C[C@@H](O)[C@H](O)CC[C@@H](O)C[C@@H](O)CC(=O)O[C@H]1C)C[C@H](O)[C@H]2C(=O)O [Amphotericin B]
- MIC80 (C. neoformans [2]): 2 µg/mL (≈ 2.16 µM)

Compound: CC[C@H](C)C[C@H](C)CCCCCCCCC(=O)N[C@H]1C[C@@H](O)[C@@H](NCCN)NC(=O)[C@@H]2[C@@H](O)CCN2C(=O)[C@H]([C@H](O)CCN)NC(=O)[C@H]([C@H](O)[C@@H](O)c2ccc(O)cc2)NC(=O)[C@@H]2C[C@@H](O)CN2C(=O)[C@H]([C@@H](C)O)NC1=O [Caspofungin]
- MIC80 (C. albicans; ref (12)): 1 µg/mL (≈ 0.915 µM)

Compound: C[C@@H](c1ncncc1F)[C@](O)(Cn1cncn1)c1ccc(F)cc1F [Voriconazole]
- MIC80 (C. albicans; ref (11)): 0.06 µg/mL (≈ 0.172 µM)

Compound: CC(Cc1ccoc1)NS(C)(=O)=O (centres unmarked) [SJ000866077-1]
- inhibition at 500 µM (6xHis-CaTps1 [1]; [6]): 11.1%

Compound: Cc1cc(C(C#N)c2ccc(Cl)cc2)c(Cl)cc1NC(=O)c1cc(I)cc(I)c1O (centres unmarked) [Closantel]
- activity in vitro (C. neoformans [4]): potent activity
- antifungal activity in murine models [5]: does not have antifungal activity
- activity in vitro (Cryptococcus gattii): potent activity

Compound: O=C(C1CC1)N1CCCNCC1 [SJ000866536-1]
- inhibition at 500 µM (6xHis-CaTps1 [1]; [6]): 18.6%

Compound: OC(Cn1cncn1)(Cn1cncn1)c1ccc(F)cc1F [Fluconazole]
- MIC80 (C. albicans; ref (11)): 1.84 µg/mL (≈ 6.01 µM)

Compound: CN(C)C(C#N)c1c(F)cccc1Cl (centres unmarked) [SJ000866107-1]
- inhibition at 500 µM (6xHis-CaTps1 [1]): 18.2%
